Measured values from patent US20210147455A1 (SHAANXI SYNTHETIC PHARMACEUTICAL CO., LTD., priority 2018, published 2021).
Values after ≈ are worked out from the molar mass of the structure shown. Like-named read-outs stand apart in the source and are kept apart here.

Tests used:
[1] = Urine sample
Procedure: The mice were purchased from Beijing Weili Tonghua Experimental Animal Technology Co., Ltd. Based on the weight, the mice were randomly divided into 5 groups, with each group including 3 animals.
Before the pharmacokinetic test, the mice were fasted for 16 hours. […] 200 μl of blood was collected at preset timepoint by jugular vein puncture after administration. For the animal group subjected to intravenous administration, blood was collected at minute 0, minute 15, minute 30, hour 1, hour 2, hour 4, hour 8 and hour 24 after administration. Urine was collected at hour 2, hour 4, hour 8, hour 12 and hour 24. The blood was collected in a sample tube containing EDTA and blood sample was immediately centrifuged at 4000 rpm at 4° C. for 5 minutes. The plasma was transferred to another sample tube and stored at minus 20° C.
The following method and apparatus were used:
Mobile phase: 100% of acetonitrile (3 mM ammonium acetate) and 100% of water (3 mM ammonium acetate) Quantitation method: internal standard method

[2] = Stability experiments under 40° C.±2° C. and 75% R.H±5% R.H (accelerated test); type: physicochemical; conditions: 40° C./75% R.H
[3] = in vivo; conditions: female, mouse, 1 mg/kg
[4] = Stability experiments under 25° C.±2° C. and 65% R.H±5% R.H; conditions: 25° C./65% R.H
From the text: • 1. […] The results are shown in detail in the following table.

[5] = Hygroscopicity study (Chinese Pharmacopoeia 2015, 9103); type: physicochemical
Procedure: Test method: • 1. A dried glass weighing bottle with stopper (having an outer diameter of 50 mm and a height of 15 mm) was placed in a thermostatic drier (a saturated ammonium chloride solution was placed on the lower part of the thermostatic drier) at an appropriate temperature of 25° C.±1° C. on the day earlier before the test, and the weight (m1) of weighing bottle was precisely weighed. • 2. An appropriate amount of test sample was taken and spread in the weighing bottle, and the thickness of the test sample was controlled to about 1 mm, and the weight (m2) was precisely weighed. • 3. The weighing bottle was opened and was placed, together with the bottle cap, under the above mentioned constant temperature and humidity condition for 24 hours. • 4. The weighing bottle was capped and precisely weighed to obtain the weight (m3).
Description of hygroscopicity characterization and delimitation of hygroscopicity weight gain: Deliquescence: enough moisture is absorbed to form a liquid. […] Slightly hygroscopic: hygroscopic weight gain is less than 2% but not less than 0.2%. Not or hardly hygroscopic: hygroscopic weight gain is less than 0.2%.

[6] = Solubility study
[7] = background statement; cited from earlier work
[8] = day 5, High temperature of 40° C.
[9] = day 10, High temperature of 40° C.

Molecule: CC[C@@H]([C@H](C)OP(=O)(O)O)n1ncn(-c2ccc(N3CCN(c4ccc(OC[C@@H]5CO[C@@](Cn6cncn6)(c6ccc(F)cc6F)C5)cc4)CC3)cc2)c1=O [Example 1, Posaconazole Phosphate Monocholinate]
- Content (day 0): 99.87%
- Description (day 0): White
- Related substance (day 0): 0.13%
- Content (day 5, High humidity of 92.5%): 99.86%
- Description (day 5, High humidity of 92.5%): White
- Related substance (day 5, High humidity of 92.5%): 0.14%
- Content [8]: 99.87%
- Description [8]: White
- Related substance [8]: 0.13%
- Content (day 5, Illumination of 4500LX): 99.87%
- Description (day 5, Illumination of 4500LX): White
- Related substance (day 5, Illumination of 4500LX): 0.13%
- Content (day 10, High humidity of 92.5%): 99.86%
- Description (day 10, High humidity of 92.5%): White
- Related substance (day 10, High humidity of 92.5%): 0.14%
- Content [9]: 99.85%
- Description [9]: White
- Related substance [9]: 0.15%
- Content (day 10, Illumination of 4500LX): 99.86%
- Description (day 10, Illumination of 4500LX): White
- Related substance (day 10, Illumination of 4500LX): 0.14%
- Concentration of the compound in Example 1 ([1]; 0~2 h, 1 mg/kg intravenous): 149.1 ng/mL
- Concentration of the compound in Example 1 ([1]; 2~4 h): 641.6 ng/mL
- Concentration of the compound in Example 1 ([1]; 4~8 h): 973.0 ng/mL
- Concentration of the compound in Example 1 ([1]; 8~12 h): 716.5 ng/mL
- Concentration of the compound in Example 1 ([1]; 12~24 h): 400.9 ng/mL
- Content ([2]; month 0): 99.87%
- Description ([2]; month 0): White
- Related substance ([2]; month 0): 0.13%
- Content ([2]; month 1): 99.87%
- Description ([2]; month 1): White
- Related substance ([2]; month 1): 0.13%
- Content ([2]; month 2): 99.86%
- Description ([2]; month 2): White
- Related substance ([2]; month 2): 0.14%
- Content ([2]; month 3): 99.85%
- Description ([2]; month 3): White
- Related substance ([2]; month 3): 0.15%
- Content ([2]; month 6): 99.84%
- Description ([2]; month 6): White
- Related substance ([2]; month 6): 0.16%
- concentration at 0.25 h ([3]; plasma, iv): 5560 ng/mL
- concentration at 0.5 h ([3]; plasma, iv): 7040 ng/mL
- concentration at 1 h ([3]; plasma, iv): 7630 ng/mL
- concentration at 2 h ([3]; plasma, iv): 8270 ng/mL
- concentration at 4 h ([3]; plasma, iv): 7520 ng/mL
- concentration at 8 h ([3]; plasma, iv): 7780 ng/mL
- concentration at 24 h ([3]; plasma, iv): 7920 ng/mL
- concentration at 24 h ([3]; urine, intravenous): 0 ng/mL
- stability (conclusion in words) ([4]; up to month 24): higher than that of the compounds in Comparative examples 1˜11
- Content ([4]; month 0): 99.87%
- Description ([4]; month 0): White
- Related substance ([4]; month 0): 0.13%
- Content ([4]; month 3): 99.87%
- Description ([4]; month 3): White
- Related substance ([4]; month 3): 0.13%
- Content ([4]; month 6): 99.87%
- Description ([4]; month 6): White
- Related substance ([4]; month 6): 0.13%
- Content ([4]; month 9): 99.85%
- Description ([4]; month 9): White
- Related substance ([4]; month 9): 0.15%
- Content ([4]; month 12): 99.84%
- Description ([4]; month 12): White
- Related substance ([4]; month 12): 0.16%
- Content ([4]; month 24): 99.80%
- Description ([4]; month 24): White
- Related substance ([4]; month 24): 0.20%
- Hygroscopic weight gain ([5]; 25° C.±1° C., saturated ammonium chloride solution, 24 hours): 0.12%
- Conclusion (hygroscopicity) ([5]; after 24 hours): No hygroscopicity
- solubility ([6]; organic solvent or mixture, Solubility, Methanol, in methanol): 35000 µg/mL
- solubility ([6]; water, Solubility, in water): 82000 µg/mL

Molecule: CC[C@@H]([C@H](C)O)n1ncn(-c2ccc(N3CCN(c4ccc(OC[C@@H]5CO[C@@](Cn6cncn6)(c6ccc(F)cc6F)C5)cc4)CC3)cc2)c1=O [Posaconazole]
- solubility ([6]; isopropanol, organic solvent or mixture): 100 µg/mL (≈ 143 µM)
- solubility ([6]; methanol, organic solvent or mixture): 60 µg/mL (≈ 85.6 µM)
- solubility ([6]; water): 50 µg/mL (≈ 71.3 µM)

Molecule: sulfobutyl ether-β-cyclodextrin
- preclinical toxicology finding [7]: causes vacuolization of the urothelial cells and activation of the macrophages in the liver and lung
